Columns and labels:
full-length human RORγt = full-length human RORγt (Homo sapiens (Human), UniProt P51449); experiment: RORγt (full-length human) reporter assay, conditions A or B; format: cell-based; conditions: for inhibition at 3 µM: 3 μM compound concentration (*); for IC50: HEK293T cells, read-out: RORγt (FL) Reporter Assay A or B, IC50; for inhibition at 6 µM: read-out: RORγt (FL) Reporter Assay A or B, % inhibition @ 6 μM, 6 μM compound concentration
From the text: RORγt (Full-Length Human) Reporter Assay:
Cells used in this assay were transiently co-transfected with three different plasmids, one expressing the GAL4-DNA binding domain (DBD)-RORγt fusion protein under control of a CMV promoter (NH2-Gal4-DBD:RORC—COOH in pCMV-BD, Stratagene #211342), and two reporter plasmids—the firefly luciferase reporter under control of a GAL4 promoter (pFR-Luc 2×GAL4) and Renilla luciferase reporter under control of CMV promoter (pRL-CMV, Promega #E2261). […] HEK293T cells were plated at 35,000 per well in 96-well plate in medium of DMEM with 10% FBS. After 18-22 hours incubation, the transfection was carried out by using a PEI solution with 170.5 ng total DNA/well (50 ng pCMV-BD-ROR plus 20 ng of pFR-Luc reporter and 0.5 ng of pRL-CMV reporter plus 100 ng Carrier DNA (Clontech #630440) for each well). 4-6 hours after transfection, cells were treated with compounds for overnight in the medium with final concentration of FBS 1.3% and DMSO 0.1%. After overnight (16 to 20 hours) incubation, media were removed and cells were lysed with […] Glo Lysis Buffer (Promega) for 10-15 minutes followed by 10 minute incubation with 50 μL Dual Glo reagent (Promega) at room temperature. Firefly luciferase luminescence was measured using a BMG Pherastar plate reader. To each well, 50 μL Stop and Glo reagent was added and incubated for 10 minutes at room temperature. Renilla luminescence was measured using a BMG Pherastar plate reader. To calculate the effect of compounds on RORγt activity, firefly values were normalized against values of DMSO only and values of reference compound at saturating concentration, then further normalized against Renilla signals. IC50s were generated by plotting final Renilla normalized data against compound concentration and percent inhibition was calculated against DMSO control.
Cells used in this assay were transiently co-transfected with three different plasmids, one expressing the GAL4-DNA binding domain (DBD)-RORγt fusion protein under control of a CMV promoter (NH2-Gal4-DBD:RORC—COOH in pCMV-BD, Stratagene #211342), and two reporter plasmids—the firefly luciferase reporter under control of a GAL4 promoter (pFR-Luc 2×GAL4) and Renilla luciferase reporter under control of CMV promoter (pRL-CMV, Promega #E2261). […] HEK293T cells were plated at 8750 cells per well in 384-well plate in medium of DMEM with 10% FBS. After 18-22 hours incubation, the transfection was carried out by using a PEI solution with 42.6 ng total DNA/well (12.5 ng pCMV-BD-ROR plus 5 ng of pFR-Luc reporter and 0.125 ng of pRL-CMV reporter plus 25 ng Carrier DNA (Clontech #630440) for each well). 4-6 hours after transfection, cells were treated with compounds for overnight in the medium with final concentration of FBS 1.3% and DMSO 0.1%. After overnight (16 to 20 hours) incubation, media were removed and cells were lysed with 20 μL Glo Lysis Buffer (Promega) for 10-15 minutes followed by 10 minute incubation with 20 μL Dual Glo reagent (Promega) at room temperature. Firefly luciferase luminescence was measured using a BMG Pherastar plate reader. To each well, 20 μL Stop and Glo reagent was added and incubated for 10 minutes at room temperature. Renilla luminescence was measured using a BMG Pherastar plate reader. To calculate the effect of compounds on RORγt activity, firefly values were normalized against values of DMSO only and values of reference compound at saturating concentration, then further normalized against Renilla signals. IC50s were generated by plotting final Renilla normalized data against compound concentration and percent inhibition was calculated against DMSO control.

[1] = target: human RORγt ligand binding domain (RORγt LBD) (Homo sapiens (Human), UniProt P51449); experiment: RORγt ThermoFluor assay
Chain of human RORγt ligand binding domain (RORγt LBD) (P51449 other isoform, or with tags, fused parts or gaps): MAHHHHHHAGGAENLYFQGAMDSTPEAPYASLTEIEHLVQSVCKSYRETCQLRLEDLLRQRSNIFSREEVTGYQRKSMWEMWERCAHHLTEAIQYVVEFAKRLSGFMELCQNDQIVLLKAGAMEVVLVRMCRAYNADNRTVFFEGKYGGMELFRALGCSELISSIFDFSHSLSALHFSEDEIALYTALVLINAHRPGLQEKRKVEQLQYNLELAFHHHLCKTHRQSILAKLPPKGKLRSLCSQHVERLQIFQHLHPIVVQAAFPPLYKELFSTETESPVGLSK
From the text: ThermoFluor® is a fluorescence based assay that estimates ligand binding affinities by measuring the effect of a ligand on protein thermal stability (Pantoliano, M. W., Petrella, E. C., Kwasnoski, J. D., Lobanov, V. S., Myslik, J., Graf, E., Carver, T., Asel, E., Springer, B. A., Lane, P., and Salemme, F. R. (2001) High-density miniaturized thermal shift assays as a general strategy for drug discovery. J Biomol Screen 6, 429-40, and Matulis, D., Kranz, J. K., Salemme, F. R., and Todd, M. J. (2005) Thermodynamic stability of carbonic anhydrase: measurements of binding affinity and stoichiometry using ThermoFluor. Biochemistry 44, 5258-66). This approach is applicable to a wide variety of systems, and rigorous in theoretical interpretation through quantitation of equilibrium binding constants (KD).
The shift in the melting point described as a ΔTm is proportional to the concentration and affinity of the ligand.
RORγt ThermoFluor® Assay Construct
Nucleotides 850-1635 (SEQ ID NO:2) coding for the wild type human RORγt ligand binding domain (RORγt LBD) were cloned into the pHIS 1 vector, a modified pET E. coli expression vector (Accelagen, San Diego), containing an in-frame N-terminal His-tag and a TurboTEV protease cleavage site (ENLYFQG, SEQ ID NO:3) upstream of the cloned insert sequence. The amino acid sequence for the RORγt construct used in the Thermofluor® assay is shown as SEQ ID NO:4.
ThermoFluor® experiments were carried out using instruments owned by Janssen Research and Development, L.L.C. through its acquisition of 3-Dimensional Pharmaceuticals, Inc. 1,8-ANS (Invitrogen) was used as a fluorescent dye. Protein and compound solutions are dispensed into black 384-well polypropylene PCR microplates (Abgene) and overlayed with silicone oil (1 μL, Fluka, type DC 200) to prevent evaporation.
Bar-coded assay plates are robotically loaded onto a thermostatically controlled PCR-type thermal block and then heated at a typical ramp-rate of 1° C./min for all experiments. Fluorescence was measured by continuous illumination with UV light (Hamamatsu LC6) supplied via fiber optic and filtered through a band-pass filter (380-400 nm; >6 OD cutoff). Fluorescence emission of the entire 384-well plate was detected by measuring light intensity using a CCD camera (Sensys, Roper Scientific) filtered to detect 500±25 nm, resulting in simultaneous and independent readings of all 384 wells. Images were collected at each temperature, and the sum of the pixel intensity in a given area of the assay plate was recorded versus temperature. Reference wells contained RORγt without compounds, and the assay conditions were as follows: • 0.065 mg/mL RORγt • 60 μM 1,8-ANS • 100 mM Hepes, pH 7.0 • 10 mM NaCl • 2.5 mM GSH • 0.002% Tween-20
Project compounds were arranged in a pre-dosed mother plate (Greiner Bio-one) wherein compounds are serially diluted in 100% DMSO by 1:2 from a high concentration of 10 mM over 12 columns within a series (column 12 is a reference well containing DMSO, no compound). The compounds were robotically dispensed directly into assay plates (1×=46 nL) using a Hummingbird capillary liquid handling instrument (Digilab). Following compound dispense, protein and dye in buffer was added to achieve the final assay volume of 3 μL, followed by 1 μL of silicone oil.
The binding affinity was estimated as described previously (Matulis, D., Kranz, J. K., Salemme, F. R., and Todd, M. J. (2005) Thermodynamic stability of carbonic anhydrase: measurements of binding affinity and stoichiometry using ThermoFluor®. Biochemistry 44, 5258-66) using the following thermodynamic parameters of protein unfolding: […]

[2] = read-out: RORγt (FL) Reporter Assay A or B, % inhibition

Chain of full-length human RORγt (P51449 other isoform, or with tags, fused parts or gaps): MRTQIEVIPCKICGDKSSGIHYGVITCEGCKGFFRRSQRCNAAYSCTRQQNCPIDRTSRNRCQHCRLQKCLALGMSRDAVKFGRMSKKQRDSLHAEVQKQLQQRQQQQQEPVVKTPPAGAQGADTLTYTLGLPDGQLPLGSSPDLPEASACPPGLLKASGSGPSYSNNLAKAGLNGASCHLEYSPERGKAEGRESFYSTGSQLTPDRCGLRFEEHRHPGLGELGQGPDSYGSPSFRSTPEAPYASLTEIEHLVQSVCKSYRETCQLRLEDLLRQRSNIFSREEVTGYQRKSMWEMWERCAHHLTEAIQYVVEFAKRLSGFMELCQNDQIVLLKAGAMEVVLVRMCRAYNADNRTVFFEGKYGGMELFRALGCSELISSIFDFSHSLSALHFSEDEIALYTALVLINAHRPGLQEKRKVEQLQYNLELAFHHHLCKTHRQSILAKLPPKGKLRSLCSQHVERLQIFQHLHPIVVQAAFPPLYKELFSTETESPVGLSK

Structure (SMILES)	IC50 (full-length human RORγt)	inhibition at 6 µM (full-length human RORγt)	further results
Cc1nc(C(=O)NC[C@@H]2CC[C@@H](S(C)(=O)=O)C[C@H]2O)c(C#N)n1-c1ccc(CC(C)(C)C(F)(F)F)cc1OC(F)F (racemic) [Example 55, 5-Cyano-1-(2-(difluoromethoxy)-4-(3,3,3-trifluoro-2,2-dimethylpropyl)phenyl)-N-(((1RS,2SR,4SR)-2-hydroxy-4-(methylsulfonyl)cyclohexyl)methyl)-2-methyl-1H-imidazole-4-carboxamide]	66 nM		inhibition at 3 µM (full-length human RORγt; [2]): 93%; Kd [1]: 20 nM
CCc1nc(C(=O)NC[C@H]2CC[C@H](S(C)(=O)=O)CC2)c(C)n1-c1ccc(CC(C)C(F)(F)F)cc1OC (single isomer, unassigned) [Example 8]	160 nM		inhibition at 0.67 µM (full-length human RORγt; read-out: RORγt (FL) Reporter Assay A or B, % inhibition, 0.67 μM compound concentration (****)): 66%
CCc1nc(C(=O)NC[C@H]2CC[C@H](S(C)(=O)=O)CC2)c(Cl)n1-c1ncc(CCCC(F)(F)F)cc1OC(F)F [Example 48, 5-Chloro-1-(3-(difluoromethoxy)-5-(4,4,4-trifluorobutyl)pyridin-2-yl)-2-ethyl-N-(((1r,4r)-4-(methylsulfonyl)cyclohexyl)methyl)-1H-imidazole-4-carboxamide]	50 nM	104%	
CCc1nc(C(=O)NC[C@H]2CC[C@H](S(C)(=O)=O)CC2)c(Cl)n1-c1ccc(CC(C)(C)C(F)(F)F)c(F)c1 [Example 103, 5-Chloro-2-ethyl-1-(3-fluoro-4-(3,3,3-trifluoro-2,2-dimethylpropyl)phenyl)-N-(((1r,4r)-4-(methylsulfonyl)cyclohexyl)methyl)-1H-imidazole-4-carboxamide]			Kd [1]: 4.4 nM
CCc1nc(C(=O)NC[C@]2(O)CC[C@@H](S(C)(=O)=O)CC2)c(Cl)n1-c1ccc(CC(C)(C)C(F)(F)F)c(F)c1 [Example 104, 5-Chloro-2-ethyl-1-(3-fluoro-4-(3,3,3-trifluoro-2,2-dimethylpropyl)phenyl)-N-(((1s,4s)-1-hydroxy-4-(methylsulfonyl)cyclohexyl)methyl)-1H-imidazole-4-carboxamide]			Kd [1]: 5.4 nM
CCc1nc(C(=O)NC[C@]2(O)CC[C@@H](S(C)(=O)=O)CC2)c(Cl)n1-c1ccc(CC(C(F)(F)F)C(F)(F)F)c(F)c1 [Example 105, 5-Chloro-2-ethyl-1-(3-fluoro-4-(3,3,3-trifluoro-2-(trifluoromethyl)propyl)phenyl)-N-(((1s,4s)-1-hydroxy-4-(methylsulfonyl)cyclohexyl)methyl)-1H-imidazole-4-carboxamide]	53 nM		inhibition at 0.22 µM (full-length human RORγt; 0.22 μM compound concentration (******), read-out: RORγt (FL) Reporter Assay A or B, % inhibition): 80%
CCc1nc(C(=O)NC[C@]2(O)CC[C@@H](S(C)(=O)=O)CC2)c(Cl)n1-c1ncc(CC(C)(C)CC(F)(F)F)cc1OC(F)F [Example 107, 5-Chloro-1-(3-(difluoromethoxy)-5-(4,4,4-trifluoro-2,2-dimethylbutyl)pyridin-2-yl)-2-ethyl-N-(((1s,4s)-1-hydroxy-4-(methylsulfonyl)cyclohexyl)methyl)-1H-imidazole-4-carboxamide]			inhibition at 3 µM (full-length human RORγt; [2]): 85%

Continued, in another order:

IC50 (full-length human RORγt)	inhibition at 6 µM (full-length human RORγt)	Structure (SMILES)	further results
340 nM	98%	CCc1nc(C(=O)NC[C@]2(O)CC[C@@H](S(C)(=O)=O)CC2)c(Cl)n1-c1ncc(CCCC(F)(F)F)cc1OC(F)F [Example 47, 5-Chloro-1-(3-(difluoromethoxy)-5-(4,4,4-trifluorobutyl)pyridin-2-yl)-2-ethyl-N-(((1s,4s)-1-hydroxy-4-(methylsulfonyl)cyclohexyl)methyl)-1H-imidazole-4-carboxamide]	
120 nM	90%	CCc1nc(C(=O)NC[C@]2(O)CC[C@@H](S(C)(=O)=O)CC2)c(C)n1-c1ncc(CC(C)(C)C(F)(F)F)cc1OC(F)F [Example 50, 1-(3-(Difluoromethoxy)-5-(3,3,3-trifluoro-2,2-dimethylpropyl)pyridin-2-yl)-2-ethyl-N-(((1s,4s)-1-hydroxy-4-(methylsulfonyl)cyclohexyl)methyl)-5-methyl-1H-imidazole-4-carboxamide]	
	78%	CCc1nc(C(=O)NC[C@]2(O)CC[C@@H](S(C)(=O)=O)CC2)c(C)n1-c1ncc(CCCC(F)(F)F)cc1OC(F)F [Example 52, 1-(3-(Difluoromethoxy)-5-(4,4,4-trifluorobutyl)pyridin-2-yl)-2-ethyl-N-(((1s,4s)-1-hydroxy-4-(methylsulfonyl)cyclohexyl)methyl)-5-methyl-1H-imidazole-4-carboxamide]	
2400 nM	54%	CCc1nc(C(=O)NC[C@]2(O)CC[C@@H](S(C)(=O)=O)CC2)c(C#N)n1-c1cnc(CCC(F)(F)F)cc1OC [Example 118, 5-Cyano-2-ethyl-N-(((1s,4s)-1-hydroxy-4-(methylsulfonyl)cyclohexyl)methyl)-1-(4-methoxy-6-(3,3,3-trifluoropropyl)pyridin-3-yl)-1H-imidazole-4-carboxamide]	
